# Experimental data: PubChem BioAssay (NCI)
#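 Step 1: Grow cells in 96-well plates. Step 2: Expose to compound for 48 hours at 5 concentrations. Step 3: Interpolate endpoints linearly; if unreached, use highest concentration. TGI marks complete inhibition of growth.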
# What was measured:
# Assay in all cases: NCI tumour cell line growth inhibition, 48 h
# U251 CNS = tested on: U251 CNS
# 786-0 renal = tested on: 786-0 renal
# M14 melanoma = tested on: M14 melanoma
# DU-145 prostate = tested on: DU-145 prostate
# OVCAR-3 ovarian = tested on: OVCAR-3 ovarian
# SR leukemia = tested on: SR leukemia
# SK-MEL-2 melanoma = tested on: SK-MEL-2 melanoma
# PC-3 prostate = tested on: PC-3 prostate
# SNB-78 CNS = tested on: SNB-78 CNS
# SK-MEL-28 melanoma = tested on: SK-MEL-28 melanoma
# CCRF-CEM leukemia = tested on: CCRF-CEM leukemia
# SF-539 CNS = tested on: SF-539 CNS
# TK-10 renal = tested on: TK-10 renal
# HCC-2998 colon = tested on: HCC-2998 colon
# MOLT-4 leukemia = tested on: MOLT-4 leukemia
# SW-620 colon = tested on: SW-620 colon
# OVCAR-8 ovarian = tested on: OVCAR-8 ovarian
# MALME-3M melanoma = tested on: MALME-3M melanoma
# NCI-H522 lung = tested on: NCI-H522 lung
# ACHN renal = tested on: ACHN renal
# NCI/ADR-RES ovarian = tested on: NCI/ADR-RES ovarian
# RXF-631 renal = tested on: RXF-631 renal
# KM12 colon = tested on: KM12 colon
# SK-MEL-5 melanoma = tested on: SK-MEL-5 melanoma
# COLO 205 colon = tested on: COLO 205 colon
# K-562 leukemia = tested on: K-562 leukemia
# UO-31 renal = tested on: UO-31 renal
# DLD-1 colon = tested on: DLD-1 colon
# HCT-116 colon = tested on: HCT-116 colon
# HOP-92 NSCLC = tested on: HOP-92 NSCLC
# M19-MEL melanoma = tested on: M19-MEL melanoma
# A498 renal = tested on: A498 renal
# MDA-MB-435 = tested on: MDA-MB-435
# HL-60(TB) leukemia = tested on: HL-60(TB) leukemia
# DMS 273 small cell lung = tested on: DMS 273 small cell lung
# CAKI-1 renal = tested on: CAKI-1 renal
# HCT-15 colon = tested on: HCT-15 colon
# MDA-N = tested on: MDA-N
# SK-OV-3 ovarian = tested on: SK-OV-3 ovarian
# A549 NSCLC = tested on: A549 NSCLC
# SNB-19 CNS = tested on: SNB-19 CNS
# HOP-62 NSCLC = tested on: HOP-62 NSCLC
# SN12C renal = tested on: SN12C renal
# HT29 colon = tested on: HT29 colon
# MCF7 breast = tested on: MCF7 breast
# BT-549 breast = tested on: BT-549 breast
# NCI-H226 lung = tested on: NCI-H226 lung
# LOX IMVI melanoma = tested on: LOX IMVI melanoma
# XF 498 CNS = tested on: XF 498 CNS
# EKVX NSCLC = tested on: EKVX NSCLC
# LXFL 529 NSCLC = tested on: LXFL 529 NSCLC
# RPMI-8226 leukemia = tested on: RPMI-8226 leukemia
# OVCAR-5 ovarian = tested on: OVCAR-5 ovarian
# IGROV1 ovarian = tested on: IGROV1 ovarian
# UACC-62 melanoma = tested on: UACC-62 melanoma
# SNB-75 CNS = tested on: SNB-75 CNS
# MDA-MB-231 breast = tested on: MDA-MB-231 breast
# HOP-18 NSCLC = tested on: HOP-18 NSCLC
# NCI-H23 lung = tested on: NCI-H23 lung
# T-47D breast = tested on: T-47D breast
# OVCAR-4 ovarian = tested on: OVCAR-4 ovarian
# HS 578T breast = tested on: HS 578T breast
# RXF 393 renal = tested on: RXF 393 renal
# SF-268 CNS = tested on: SF-268 CNS
# UACC-257 melanoma = tested on: UACC-257 melanoma
# SF-295 CNS = tested on: SF-295 CNS
# DMS 114 small cell lung = tested on: DMS 114 small cell lung
# KM20L2 colon = tested on: KM20L2 colon
# NCI-H460 lung = tested on: NCI-H460 lung
smiles,measurement,setting,value
O=C(NC(=O)c1c(F)cccc1F)Nc1cccc(Oc2ncc(Cl)cn2)c1,TGI,U251 CNS,> 83.6 µM
same,TGI,786-0 renal,> 100 µM
same,TGI,M14 melanoma,> 100 µM
same,TGI,DU-145 prostate,> 100 µM
same,TGI,OVCAR-3 ovarian,> 100 µM
same,TGI,SR leukemia,> 73.8 µM
same,TGI,SK-MEL-2 melanoma,> 100 µM
same,TGI,PC-3 prostate,> 100 µM
same,TGI,SNB-78 CNS,> 100 µM
same,TGI,SK-MEL-28 melanoma,> 100 µM
same,TGI,CCRF-CEM leukemia,> 100 µM
same,TGI,SF-539 CNS,> 100 µM
same,TGI,TK-10 renal,> 100 µM
same,TGI,HCC-2998 colon,> 27.3 µM
same,TGI,MOLT-4 leukemia,> 100 µM
same,TGI,SW-620 colon,> 100 µM
same,TGI,OVCAR-8 ovarian,> 100 µM
same,TGI,MALME-3M melanoma,> 100 µM
same,TGI,NCI-H522 lung,> 100 µM
same,TGI,ACHN renal,> 100 µM
same,TGI,NCI/ADR-RES ovarian,> 100 µM
same,TGI,RXF-631 renal,> 100 µM
same,TGI,KM12 colon,> 100 µM
same,TGI,SK-MEL-5 melanoma,> 100 µM
same,TGI,COLO 205 colon,> 100 µM
same,TGI,K-562 leukemia,> 100 µM
same,TGI,UO-31 renal,> 100 µM
same,TGI,DLD-1 colon,> 100 µM
same,TGI,HCT-116 colon,> 100 µM
same,TGI,HOP-92 NSCLC,70.9 µM
same,TGI,M19-MEL melanoma,> 100 µM
same,TGI,A498 renal,> 100 µM
same,TGI,MDA-MB-435,> 22.8 µM
same,TGI,HL-60(TB) leukemia,> 100 µM
same,TGI,DMS 273 small cell lung,> 100 µM
same,TGI,CAKI-1 renal,> 100 µM
same,TGI,HCT-15 colon,> 100 µM
same,TGI,MDA-N,> 22.7 µM
same,TGI,SK-OV-3 ovarian,> 93.3 µM
same,TGI,A549 NSCLC,> 100 µM
same,TGI,SNB-19 CNS,> 86.3 µM
same,TGI,HOP-62 NSCLC,73.6 µM
same,TGI,SN12C renal,> 100 µM
same,TGI,HT29 colon,> 46.4 µM
same,TGI,MCF7 breast,> 100 µM
same,TGI,BT-549 breast,> 100 µM
same,TGI,NCI-H226 lung,> 100 µM
same,TGI,LOX IMVI melanoma,> 100 µM
same,TGI,XF 498 CNS,69 µM
same,TGI,EKVX NSCLC,> 100 µM
same,TGI,LXFL 529 NSCLC,> 100 µM
same,TGI,RPMI-8226 leukemia,> 100 µM
same,TGI,OVCAR-5 ovarian,> 100 µM
same,TGI,IGROV1 ovarian,> 100 µM
same,TGI,UACC-62 melanoma,> 100 µM
same,TGI,SNB-75 CNS,60.3 µM
same,TGI,MDA-MB-231 breast,> 100 µM
same,TGI,HOP-18 NSCLC,> 100 µM
same,TGI,NCI-H23 lung,> 100 µM
same,TGI,T-47D breast,> 100 µM
same,TGI,OVCAR-4 ovarian,> 100 µM
same,TGI,HS 578T breast,> 92.1 µM
same,TGI,RXF 393 renal,79.5 µM
same,TGI,SF-268 CNS,77.3 µM
same,TGI,UACC-257 melanoma,> 100 µM
same,TGI,SF-295 CNS,> 85 µM
same,TGI,DMS 114 small cell lung,> 100 µM
Nc1ncnc2c1ncn2C1C=C(CO)C(O)C1O (centres undefined),TGI,U251 CNS,> 100 µM
same,TGI,786-0 renal,> 100 µM
same,TGI,M14 melanoma,> 100 µM
same,TGI,DU-145 prostate,35.8 µM
same,TGI,OVCAR-3 ovarian,> 85.2 µM
same,TGI,SR leukemia,3.24 µM
same,TGI,SK-MEL-2 melanoma,> 80.4 µM
same,TGI,PC-3 prostate,60.5 µM
same,TGI,SNB-78 CNS,> 100 µM
same,TGI,SK-MEL-28 melanoma,> 100 µM
same,TGI,CCRF-CEM leukemia,14 µM
same,TGI,SF-539 CNS,> 91.1 µM
same,TGI,TK-10 renal,> 84.9 µM
same,TGI,HCC-2998 colon,> 77.3 µM
same,TGI,MOLT-4 leukemia,30.9 µM
same,TGI,SW-620 colon,> 86.8 µM
same,TGI,OVCAR-8 ovarian,> 100 µM
same,TGI,MALME-3M melanoma,> 100 µM
same,TGI,NCI-H522 lung,35.6 µM
same,TGI,ACHN renal,66.9 µM
same,TGI,NCI/ADR-RES ovarian,74.8 µM
same,TGI,RXF-631 renal,30 µM
same,TGI,KM12 colon,> 100 µM
same,TGI,SK-MEL-5 melanoma,> 100 µM
same,TGI,COLO 205 colon,19.5 µM
same,TGI,K-562 leukemia,39.6 µM
same,TGI,UO-31 renal,19.9 µM
same,TGI,DLD-1 colon,> 100 µM
same,TGI,HCT-116 colon,12.6 µM
same,TGI,HOP-92 NSCLC,> 76.1 µM
same,TGI,KM20L2 colon,> 100 µM
same,TGI,M19-MEL melanoma,> 100 µM
same,TGI,A498 renal,43.5 µM
same,TGI,MDA-MB-435,> 100 µM
same,TGI,HL-60(TB) leukemia,2.73 µM
same,TGI,DMS 273 small cell lung,28.3 µM
same,TGI,CAKI-1 renal,> 93.6 µM
same,TGI,HCT-15 colon,> 53.7 µM
same,TGI,MDA-N,> 100 µM
same,TGI,SK-OV-3 ovarian,44.2 µM
same,TGI,NCI-H460 lung,34.8 µM
same,TGI,A549 NSCLC,> 100 µM
same,TGI,SNB-19 CNS,> 100 µM
same,TGI,HOP-62 NSCLC,> 100 µM
same,TGI,SN12C renal,> 100 µM
same,TGI,HT29 colon,> 100 µM
same,TGI,MCF7 breast,> 100 µM
same,TGI,BT-549 breast,> 100 µM
same,TGI,NCI-H226 lung,> 100 µM
same,TGI,LOX IMVI melanoma,45.4 µM
same,TGI,XF 498 CNS,> 100 µM
same,TGI,EKVX NSCLC,> 100 µM
same,TGI,LXFL 529 NSCLC,> 100 µM
same,TGI,RPMI-8226 leukemia,> 37 µM
same,TGI,OVCAR-5 ovarian,> 100 µM
same,TGI,IGROV1 ovarian,> 54.3 µM
same,TGI,UACC-62 melanoma,> 57.5 µM
same,TGI,SNB-75 CNS,48.9 µM
same,TGI,MDA-MB-231 breast,52.5 µM
same,TGI,HOP-18 NSCLC,> 100 µM
same,TGI,NCI-H23 lung,35.4 µM
same,TGI,T-47D breast,10.2 µM
same,TGI,OVCAR-4 ovarian,> 56.8 µM
same,TGI,HS 578T breast,> 100 µM
same,TGI,RXF 393 renal,42.8 µM
same,TGI,SF-268 CNS,> 100 µM
same,TGI,UACC-257 melanoma,> 100 µM
same,TGI,SF-295 CNS,> 100 µM
same,TGI,DMS 114 small cell lung,69.2 µM
O=C(O)CCC1CCc2cccc(O)c2C1=O (centres undefined),TGI,U251 CNS,> 100 µM
same,TGI,M14 melanoma,> 100 µM
same,TGI,SNB-78 CNS,> 100 µM
same,TGI,SK-MEL-28 melanoma,> 100 µM
same,TGI,CCRF-CEM leukemia,> 100 µM
same,TGI,SF-539 CNS,> 100 µM
same,TGI,MOLT-4 leukemia,> 100 µM
same,TGI,ACHN renal,> 100 µM
same,TGI,RXF-631 renal,> 100 µM
same,TGI,COLO 205 colon,> 100 µM
same,TGI,K-562 leukemia,> 100 µM
same,TGI,HOP-92 NSCLC,> 100 µM
same,TGI,KM20L2 colon,> 100 µM
same,TGI,M19-MEL melanoma,> 100 µM
same,TGI,A498 renal,> 100 µM
same,TGI,HL-60(TB) leukemia,> 100 µM
same,TGI,DMS 273 small cell lung,> 100 µM
same,TGI,HCT-15 colon,> 100 µM
same,TGI,SK-OV-3 ovarian,> 100 µM
same,TGI,NCI-H460 lung,> 100 µM
same,TGI,SNB-19 CNS,> 100 µM
same,TGI,SN12C renal,> 100 µM
same,TGI,LOX IMVI melanoma,> 100 µM
same,TGI,XF 498 CNS,> 100 µM
same,TGI,LXFL 529 NSCLC,> 100 µM
same,TGI,RPMI-8226 leukemia,> 100 µM
same,TGI,IGROV1 ovarian,> 100 µM
same,TGI,UACC-62 melanoma,> 100 µM
same,TGI,HOP-18 NSCLC,> 100 µM
same,TGI,NCI-H23 lung,> 100 µM
same,TGI,OVCAR-4 ovarian,> 100 µM
same,TGI,RXF 393 renal,> 100 µM
same,TGI,DMS 114 small cell lung,> 100 µM
